Assay results taken from patent publication US8293488B2, “Method for screening neurogenic agents” (Neuralstem, Inc., priority 2002, dated 2012).

Columns and labels:
Format in all cases: cell-based
[1] = tested on: human hippocampal multipotent stem/progenitor cells; test: Neurogenesis: ratio of TuJ1 stained neurons to total nuclei after 7 days; details: 20 ng/ml, differentiation media without mitogen, manual cell counting, controls 48.5+6.3%
Experimental: FIG. 3B. LIF effects on hippocampal cell proliferation and neurogenesis by manual cell counting. Hippocampal progenitor cells were treated for seven days with differentiation media (without mitogen) in the presence or absence of 20 ng/ml LIF. Three fields were analyzed per well for total number of cells (DAPI positive nuclei) and for total number of neurons (TUJI positive cells). Bars represent the Mean+SD from 4 wells per treatment. The percentage of neurons calculated for each treatment are as follows: 48.5+6.3% for controls and 53.6+1.15 for LIF. The non-TUJ1 positive cells are mainly astrocytic (GFAP+).
FIG. 5. Example of neurogenesis profile of compounds selected from primary screening. After 7 days of compound treatment, the ratio of neuron number (TuJ1 stained) to the total nuclei number (Hoechst stained) was determined. Shown are the relative ratio of neuron:total cells for each compound over the vehicle control in percentage. […]
(8) The total cell number in each well was quantified by staining the cultures with a nuclear dye such as DAPI or Hoechst according to standard procedures.
(§1) (9) As a preliminary detection of positive activities, the overall immunostaining intensity in each well was read by a fluorescence plate reader. For the positive hits, more quantitative analysis was carried out by automated morphometric counting of individual cells.

[2] = tested on: human hippocampal progenitor cells; test: In vitro neurogenesis assay (primary screen, positive control selection); details: for effective in the neurogenesis assay: growth factors 20 ng/ml, 7 days
Experimental: FIG. 3A. Influence of known growth factors on proliferation and neurogenesis relative to control. Hippocampal progenitor cells were treated for seven days with differentiation media (without mitogen) in the presence or absence of 20 ng/ml of growth factor dosed every other day. Plates were treated with Alamar Blue as described in Methods, then fixed and stained with antibody (TuJ1) against type III beta-tubulin (neuronal marker). The 96-well plate was read in a fluorescent plate reader. Bars represent the Mean+SD from 4 wells per treatment.
(§2) (1) Undifferentiated human neural stem/progenitor cells were harvested by enzyme treatment.
(§3) (2) The collected cells were seeded at 40,000 cells per well of 96-well plates pre-coated with extracellular matrix proteins (e.g., Biocoat PDL, Fisher). The seeding media is a standard serum-free, growth factor-free, basal media that supports healthy neuronal/glial survival, such as N2 without phenol red.
(§4) (3) Test agents at appropriate concentrations were added to each well on Day 0.
(4) The assay plates were incubated for 7 days, with 50% media change at every other day. On Day 2, 4, and 6 of post-plating, additional increment of the screening agents at appropriate concentrations were added to each well.
(7) After the alamar blue assay, the cells were fixed and stained with antibodies against neuron-specific antigens according to standard procedures. Typical antigens effective were Type III-beta tubulin and MAP2c.
as §1
Thus, the assay can discriminate test agents for selectively having a neurogenic activity. The positive control utilized is leukemia inhibitory factor (LIF), a cytokine growth factor, at 20 ng/ml. The selection of LIF as the positive control is based on its properties to increase by 2-3 fold the number of neurons and glia. This effect validates both the neural stem cell system, in which, should a compound be effective in neurogenesis, the cells respond appropriately by enhanced differentiation and/or mitosis, and the assay method in which such cellular responses can be measured reproducibly and quantifiably.
5,628 synthetic compounds of the type Fused Imidazoles, Aminopyrimidines, Nicotinamides, Aminomethyl Phenoxypiperidines and Aryloxypiperidines are evaluated for their effect on neurogenesis according the assay method described above. […] Those were re-analyzed by quantitative neuron counting. […] The significance level was empirically set at an activity above 30% change over the vehicle control for proliferation and above 10% change for neurogenesis.

[3] = tested on: human hippocampal multipotent stem/progenitor cells; test: Proliferation by Alamar Blue staining of live cells after 7 days of compound treatment; details: 7 days compound treatment, relative to vehicle control
Experimental: FIG. 4. Examples of proliferation profile of compounds selected from primary screening. Proliferation was measured after compound treatment for 7 days by Alamar Blue staining of live cells per well. Shown are relative values over the vehicle control.
as §2, §3, §4
(4) The assay plates were incubated for 7 days, with 50% media change at every other day. On Day 2, 4, and 6 of post-plating, additional increment of the screening agents at appropriate concentrations were added to each well. […]
(6) The fluorescence of the oxidized dye in each well was read by a fluorescent plate reader with the following settings:
Excitation 530 nm, emission 590 nm, cutoff 570 nm The fluorescence level is proportional to the number of respiring cells in the culture and is a measure of a proliferative activity of a test agent (FIG. 2).

[4] = tested on: differentiating human hippocampal progenitor cells; test: Dose-response of neuron number (TuJ1 positive cells, automated cell counter); details: 7 days, 100 picaM to 100 microM
Experimental: FIG. 6. Examples of neurogenesis profile of compounds selected from primary screening. After 7 days of compound treatment, the cells were stained with TuJ1 for neurons. The absolute number of TuJ1+ neurons per area was quantified and expressed as a relative value to the vehicle treated control.
FIG. 7. Dose-dependent increase in neuron number. Differentiating human hippocampal progenitor cells were treated for 7 days with varying concentrations of “primary hits”. Subsequently, the cells were fixed, stained with TuJ1, and positive cells were quantified by an automated cell counter. Shown are the number of neurons after each treatment normalized against the vehicle control (0 microM=1.0).
(§5) Linearity of dose-response and in vitro neurotoxicity are used to further filter down desired compounds from the primary screen. The dose-response curve measures neurogenesis over a concentration range of 100 picaM to 100 microM. The rationale for this is to eliminate early on those compounds with pronounced toxicity and those without a dose-dependent effect on neurogenesis. […] Table II contains the summary of EC50 of each compound tested.

[5] = tested on: differentiating human hippocampal progenitor cells; test: In vitro neurotoxicity from dose-response curves; details: dose-response up to 100 microM
Description: as §5

leukemia inhibitory factor [LIF]
percentage of neurons (TUJ1 positive cells of DAPI positive nuclei) [1]: 53.6+1.15
increase in the number of neurons and glia ([2]; 20 ng/ml): 2-3 fold
effective in the neurogenesis assay [2]: effective

COc1ccc(C2CNC(=O)C2)cc1OC1CCCC1 (stereo not shown) [Rolipram, rolipram, reference compound]
effective in the neurogenesis assay [2]: effective

CCCCNc1c(C2CCN(C(=O)CN(CC(C)C)S(C)(=O)=O)CC2)nc2cnccn12 [NSI-106]
Proliferation (% of Control) [3]: 211 ± 48 % of Control
EC50 [4]: 0.1 nM
Other Characterization of Toxicity [5]: No Toxicity

NC(=O)c1cnc(NCc2ccc(Cl)cc2)nc1NCC1CCCCC1 [NSI-144]
Proliferation (% of Control) [3]: 149 ± 15 % of Control
EC50 [4]: 1 nM
Other Characterization of Toxicity [5]: No Toxicity

B1: neurotrophic factor-3 (protein, UniProt P20783 139-257, looked up)
Neurotrophin-3: YAEHKSHRGEYSVCDSESLWVTDKSSAIDIRGHQVTVLGEIKTGNSPVKQYFYETRCKEARPVKNGCRGIDDKHWNSQCKTSQTYVRALTSENNKLVGWRWIRIDTSCVCALSRKIGRT
effective in the neurogenesis assay [2]: Only one (leukemia inhibitory factor) was effective

B2: brain-derived neurotrophic factor (protein, UniProt P23560 19-247, looked up)
Neurotrophic factor BDNF …: APMKEANIRGQGGLAYPGVRTHGTLESVNGPKAGSRGLTSLADTFEHVIEELLDEDQKVRPNEENNKDADLYTSRVMLSSQVPLEPPLLFLLEEYKNYLDAANMSMRVRRHSDPARRGELSVCDSISEWVTAADKKTAVDMSGGTVTVLEKVPVSKGQLKQYFYETKCNPMGYTKEGCRGIDKRHWNSQCRTTQSYVRALTMDSKKRIGWRFIRIDTSCVCTLTIKRGR
effective in the neurogenesis assay [2]: Only one (leukemia inhibitory factor) was effective

B3: glia-derived neurotrophic factor (protein, UniProt P39905 78-211, looked up)
Glial cell line-derived …: SPDKQMAVLPRRERNRQAAAANPENSRGKGRRGQRGKNRGCVLTAIHLNVTDLGLGYETKEELIFRYCSGSCDAAETTYDKILKNLSRNRRLVSDKVGQACCRPIAFDDDLSFLDDNLVYHILRKHSAKRCGCI
effective in the neurogenesis assay [2]: Only one (leukemia inhibitory factor) was effective
